Assay results as given in the supplement of paper PMC10307832.

Key:
Assay in all cases: relative viability (nuclei count vs DMSO), 5 days (fraction); higher = more cells survive
AZ3146 + Navitoclax = compound: CN1CCC(CC1)OC2=CC(=C(C=C2)NC3=NC=C4C(=N3)N(C(=O)N4C)C5CCCC5)OC [AZ3146] + CC1(C)CCC(c2ccc(Cl)cc2)=C(CN2CCN(c3ccc(C(=O)NS(=O)(=O)c4ccc(N[C@H](CCN5CCOCC5)CSc5ccccc5)c(S(=O)(=O)C(F)(F)F)c4)cc3)CC2)C1 [Navitoclax] (partner 0.5 µM)
Outline: (§1)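 A single step with final 0.05% Triton X-100, 1% formaldehyde and 1 ug/ml Hoechst fixed the cells and stained nuclei 5 days after treatment. Lung cancer cell lines in 1536-well plates had been treated by pin tool the day after seeding with one drug alone or a fixed anchor-drug dose plus five library-drug doses (not always all listed) in √10 steps, and nuclei were counted on 4× images. Relative viability is the ratio of nuclei in treated wells to nuclei in vehicle wells, taken as the median of duplicate plates.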

GSK-J4 + Phenformin = compound: CCOC(=O)CCNc1cc(N2CCc3ccccc3CC2)nc(-c2ccccn2)n1 [GSK-J4] + N=C(N)NC(=N)NCCc1ccccc1 [Phenformin] (partner 250 µM)
Outline: as §1

GSK-J4 + Trametinib = compound: CCOC(=O)CCNc1cc(N2CCc3ccccc3CC2)nc(-c2ccccn2)n1 [GSK-J4] + CC(=O)Nc1cccc(-n2c(=O)n(C3CC3)c(=O)c3c(Nc4ccc(I)cc4F)n(C)c(=O)c(C)c32)c1 [Trametinib] (partner 0.02 µM)
Outline: as §1

GSK-J4 + Decitabine = compound: CCOC(=O)CCNc1cc(N2CCc3ccccc3CC2)nc(-c2ccccn2)n1 [GSK-J4] + Nc1ncn([C@H]2C[C@H](O)[C@@H](CO)O2)c(=O)n1 [Decitabine] (partner 2 µM)
Outline: as §1

For NCI-H2228, the relative viability (AZ3146 + Navitoclax; first compound 0.08 µM) was 0.901, the relative viability (AZ3146 + Navitoclax; first compound 0.253 µM) was 0.8 and the relative viability (AZ3146 + Navitoclax; first compound 0.8 µM) was 0.961. The relative viability (AZ3146 + Navitoclax; first compound 2.53 µM) was 0.935, the relative viability (AZ3146 + Navitoclax; first compound 8 µM) was 0.845 and the relative viability (GSK-J4 + Phenformin; first compound 0.5 µM) was 0.331. The relative viability (GSK-J4 + Phenformin; first compound 1.581 µM) was 0.205, the relative viability (GSK-J4 + Phenformin; first compound 5 µM) was 0.42 and the relative viability (GSK-J4 + Phenformin; first compound 15.81 µM) was 0.244. For the same cell line, the relative viability (GSK-J4 + Phenformin; first compound 50 µM) was 0.355, the relative viability (GSK-J4 + Trametinib; first compound 0.5 µM) was 0.523 and the relative viability (GSK-J4 + Trametinib; first compound 1.581 µM) was 0.526. It also gave a relative viability (GSK-J4 + Trametinib; first compound 5 µM) of 0.48, a relative viability (GSK-J4 + Trametinib; first compound 15.81 µM) of 0.415 and a relative viability (GSK-J4 + Trametinib; first compound 50 µM) of 0.334.
Cell Line NCI-H2342 has a relative viability (GSK-J4 + Phenformin; first compound 0.5 µM) of 0.652, a relative viability (GSK-J4 + Phenformin; first compound 1.581 µM) of 0.629 and a relative viability (GSK-J4 + Phenformin; first compound 5 µM) of 0.573. For the same cell line, the relative viability (GSK-J4 + Phenformin; first compound 15.81 µM) was 0.706, the relative viability (GSK-J4 + Phenformin; first compound 50 µM) was 0.595 and the relative viability (GSK-J4 + Trametinib; first compound 0.5 µM) was 0.819. For the same cell line, the relative viability (GSK-J4 + Trametinib; first compound 1.581 µM) was 0.752, the relative viability (GSK-J4 + Trametinib; first compound 5 µM) was 0.866 and the relative viability (GSK-J4 + Trametinib; first compound 15.81 µM) was 0.917. It also gave a relative viability (GSK-J4 + Trametinib; first compound 50 µM) of 0.946, a relative viability (GSK-J4 + Decitabine; first compound 0.5 µM) of 0.645 and a relative viability (GSK-J4 + Decitabine; first compound 1.581 µM) of 0.691. For the same cell line, the relative viability (GSK-J4 + Decitabine; first compound 5 µM) was 0.776, the relative viability (GSK-J4 + Decitabine; first compound 15.81 µM) was 0.75 and the relative viability (GSK-J4 + Decitabine; first compound 50 µM) was 0.7.
With EBC-1 the relative viability (AZ3146 + Navitoclax; first compound 0.08 µM) was 0.499, the relative viability (AZ3146 + Navitoclax; first compound 0.253 µM) was 0.464 and the relative viability (AZ3146 + Navitoclax; first compound 0.8 µM) was 0.426. The relative viability (AZ3146 + Navitoclax; first compound 2.53 µM) was 0.412 and the relative viability (AZ3146 + Navitoclax; first compound 8 µM) was 0.229.
Work on Calu-6 yielded a relative viability (AZ3146 + Navitoclax; first compound 0.08 µM) of 0.781, a relative viability (AZ3146 + Navitoclax; first compound 0.253 µM) of 0.952 and a relative viability (AZ3146 + Navitoclax; first compound 0.8 µM) of 0.763. For the same cell line, the relative viability (AZ3146 + Navitoclax; first compound 2.53 µM) was 0.665 and the relative viability (AZ3146 + Navitoclax; first compound 8 µM) was 0.278.
NCI-H650 was tested, and the relative viability (GSK-J4 + Phenformin; first compound 0.5 µM) was 0.455, the relative viability (GSK-J4 + Phenformin; first compound 1.581 µM) was 0.419 and the relative viability (GSK-J4 + Phenformin; first compound 5 µM) was 0.322. For the same cell line, the relative viability (GSK-J4 + Phenformin; first compound 15.81 µM) was 0.422, the relative viability (GSK-J4 + Phenformin; first compound 50 µM) was 0.423 and the relative viability (GSK-J4 + Trametinib; first compound 0.5 µM) was 0.949. The relative viability (GSK-J4 + Trametinib; first compound 1.581 µM) was 0.871, the relative viability (GSK-J4 + Trametinib; first compound 15.81 µM) was 0.771 and the relative viability (GSK-J4 + Trametinib; first compound 50 µM) was 0.745. The relative viability (GSK-J4 + Decitabine; first compound 0.5 µM) was 0.289, the relative viability (GSK-J4 + Decitabine; first compound 1.581 µM) was 0.326 and the relative viability (GSK-J4 + Decitabine; first compound 15.81 µM) was 0.283. For the same cell line, the relative viability (GSK-J4 + Decitabine; first compound 50 µM) was 0.334.
NCI-H661 was tested, and the relative viability (GSK-J4 + Phenformin; first compound 0.5 µM) was 0.269, the relative viability (GSK-J4 + Phenformin; first compound 1.581 µM) was 0.312 and the relative viability (GSK-J4 + Phenformin; first compound 5 µM) was 0.238. For the same cell line, the relative viability (GSK-J4 + Phenformin; first compound 15.81 µM) was 0.258, the relative viability (GSK-J4 + Phenformin; first compound 50 µM) was 0.266 and the relative viability (GSK-J4 + Trametinib; first compound 0.5 µM) was 0.583. For the same cell line, the relative viability (GSK-J4 + Trametinib; first compound 1.581 µM) was 0.582, the relative viability (GSK-J4 + Trametinib; first compound 5 µM) was 0.5 and the relative viability (GSK-J4 + Trametinib; first compound 15.81 µM) was 0.462. For the same cell line, the relative viability (GSK-J4 + Trametinib; first compound 50 µM) was 0.418, the relative viability (GSK-J4 + Decitabine; first compound 0.5 µM) was 0.548 and the relative viability (GSK-J4 + Decitabine; first compound 1.581 µM) was 0.5. The relative viability (GSK-J4 + Decitabine; first compound 5 µM) was 0.485, the relative viability (GSK-J4 + Decitabine; first compound 15.81 µM) was 0.497 and the relative viability (GSK-J4 + Decitabine; first compound 50 µM) was 0.441.
In the case of A549, the relative viability (AZ3146 + Navitoclax; first compound 0.08 µM) is reported as 1.12, the relative viability (AZ3146 + Navitoclax; first compound 0.253 µM) is reported as 1.29 and the relative viability (AZ3146 + Navitoclax; first compound 0.8 µM) is reported as 1.23. The relative viability (AZ3146 + Navitoclax; first compound 2.53 µM) was 0.467, the relative viability (AZ3146 + Navitoclax; first compound 8 µM) was 0.0543 and the relative viability (GSK-J4 + Phenformin; first compound 0.5 µM) was 0.146. It also gave a relative viability (GSK-J4 + Phenformin; first compound 1.581 µM) of 0.156, a relative viability (GSK-J4 + Phenformin; first compound 5 µM) of 0.0648 and a relative viability (GSK-J4 + Phenformin; first compound 15.81 µM) of 0.0756. The relative viability (GSK-J4 + Phenformin; first compound 50 µM) was 0.103, the relative viability (GSK-J4 + Decitabine; first compound 0.5 µM) was 0.241 and the relative viability (GSK-J4 + Decitabine; first compound 1.581 µM) was 0.205. It also gave a relative viability (GSK-J4 + Decitabine; first compound 5 µM) of 0.246, a relative viability (GSK-J4 + Decitabine; first compound 15.81 µM) of 0.244 and a relative viability (GSK-J4 + Decitabine; first compound 50 µM) of 0.282.
With SW 900 the relative viability (GSK-J4 + Phenformin; first compound 0.5 µM) was 0.581, the relative viability (GSK-J4 + Phenformin; first compound 1.581 µM) was 0.592 and the relative viability (GSK-J4 + Phenformin; first compound 5 µM) was 0.617. The relative viability (GSK-J4 + Phenformin; first compound 15.81 µM) was 0.402, the relative viability (GSK-J4 + Phenformin; first compound 50 µM) was 0.246 and the relative viability (GSK-J4 + Trametinib; first compound 0.5 µM) was 0.548. It also gave a relative viability (GSK-J4 + Trametinib; first compound 1.581 µM) of 0.691, a relative viability (GSK-J4 + Trametinib; first compound 5 µM) of 0.877 and a relative viability (GSK-J4 + Trametinib; first compound 15.81 µM) of 0.785. It also gave a relative viability (GSK-J4 + Trametinib; first compound 50 µM) of 0.83, a relative viability (GSK-J4 + Decitabine; first compound 0.5 µM) of 0.376 and a relative viability (GSK-J4 + Decitabine; first compound 1.581 µM) of 0.354. The relative viability (GSK-J4 + Decitabine; first compound 5 µM) was 0.469, the relative viability (GSK-J4 + Decitabine; first compound 15.81 µM) was 0.48 and the relative viability (GSK-J4 + Decitabine; first compound 50 µM) was 0.343.
For LCLC-103H, the relative viability (GSK-J4 + Phenformin; first compound 0.5 µM) was 0.32, the relative viability (GSK-J4 + Phenformin; first compound 1.581 µM) was 0.296 and the relative viability (GSK-J4 + Phenformin; first compound 5 µM) was 0.224. It also gave a relative viability (GSK-J4 + Phenformin; first compound 15.81 µM) of 0.331, a relative viability (GSK-J4 + Phenformin; first compound 50 µM) of 0.33 and a relative viability (GSK-J4 + Trametinib; first compound 0.5 µM) of 0.68. The relative viability (GSK-J4 + Trametinib; first compound 1.581 µM) was 0.64, the relative viability (GSK-J4 + Trametinib; first compound 5 µM) was 0.674 and the relative viability (GSK-J4 + Trametinib; first compound 15.81 µM) was 0.622. For the same cell line, the relative viability (GSK-J4 + Trametinib; first compound 50 µM) was 0.626, the relative viability (GSK-J4 + Decitabine; first compound 0.5 µM) was 0.784 and the relative viability (GSK-J4 + Decitabine; first compound 1.581 µM) was 0.624. The relative viability (GSK-J4 + Decitabine; first compound 5 µM) was 0.786, the relative viability (GSK-J4 + Decitabine; first compound 15.81 µM) was 0.722 and the relative viability (GSK-J4 + Decitabine; first compound 50 µM) was 0.572.
For IA-LM, the relative viability (AZ3146 + Navitoclax; first compound 0.08 µM) was 0.713, the relative viability (AZ3146 + Navitoclax; first compound 0.253 µM) was 0.785 and the relative viability (AZ3146 + Navitoclax; first compound 0.8 µM) was 0.699. It also gave a relative viability (AZ3146 + Navitoclax; first compound 2.53 µM) of 0.881 and a relative viability (AZ3146 + Navitoclax; first compound 8 µM) of 0.156.
NCI-H1703 was tested, and the relative viability (AZ3146 + Navitoclax; first compound 0.08 µM) was 1.06, the relative viability (AZ3146 + Navitoclax; first compound 0.253 µM) was 0.91 and the relative viability (AZ3146 + Navitoclax; first compound 0.8 µM) was 0.993. The relative viability (AZ3146 + Navitoclax; first compound 2.53 µM) was 0.708 and the relative viability (AZ3146 + Navitoclax; first compound 8 µM) was 0.283.
With NCI-H1563 the relative viability (GSK-J4 + Phenformin; first compound 0.5 µM) was 0.665, the relative viability (GSK-J4 + Phenformin; first compound 1.581 µM) was 0.71 and the relative viability (GSK-J4 + Phenformin; first compound 5 µM) was 0.607. For the same cell line, the relative viability (GSK-J4 + Phenformin; first compound 15.81 µM) was 0.56 and the relative viability (GSK-J4 + Phenformin; first compound 50 µM) was 0.656.
With NCI-H1648 the relative viability (GSK-J4 + Trametinib; first compound 0.5 µM) was 0.467, the relative viability (GSK-J4 + Trametinib; first compound 5 µM) was 0.643 and the relative viability (GSK-J4 + Trametinib; first compound 50 µM) was 0.429. The relative viability (GSK-J4 + Decitabine; first compound 0.5 µM) was 0.569, the relative viability (GSK-J4 + Decitabine; first compound 5 µM) was 0.718 and the relative viability (GSK-J4 + Decitabine; first compound 50 µM) was 0.482.
